Results published in patent US20040076999A1, “Computer user interface facilitating acquiring and analyzing of biological specimen traits” (Baylor College of Medicine, priority 2002, published 2004).

Legend:
flies = conditions: administered orally to flies; cited from earlier work
Drosophila = conditions: feeding Drosophila; cited from earlier work
[1] = tested on: Drosophila expressing a mutant form of human Huntington (HD); assay: Motion tracking with Drosophila model of Huntington disease; assay type: in vivo; conditions: HD flies with drug versus wt flies
Experimental: (§1) Each movie is first scored individually to give one value per score and movie. A single movie is therefore considered to be the experimental base unit. Thereafter average values and standard errors for all scores are calculated from the movie score values for all repeats for a vial. Those averages and standard errors are the values shown in the PhenoScreen program. The data that is used in the scoring process are the trajectories of the corresponding movie. Each trajectory consists of a list of x- and y-coordinates of the position of the fly (and also size), with one list entry for every frame from when it starts moving in one frame until it stops in another.
Cross150: The Cross150 score is the number of trajectories that either crossed the line at x=150 in the negative x-direction (from bottom to top of the vial) during the movie, or that were already above that line at the start of the movie. […] In other words this score measures the number of detected flies that either managed to hold on to the tube or that managed to climb above the x=150 line within the length of the movie.
Drosophila expressing a mutant form of human Huntington (HD) have a functional deficit that is quantifiable, reproducible, and is suitable for automated high-throughput screening. Drosophila (or specimen) movements can be analyzed for various characteristics and/or traits. […]

wild-type flies = assay: Motion tracking with wild-type flies; assay type: in vivo, Drosophila; conditions: flies fed 0.1M or 0.05M LiCl, compared to controls; FIG. 32
Experimental: as §1
Speed: The Speed score is calculated in the same way as the X-Speed score, but instead of only using the length of the x-component of the speed vector, the length of the whole vector is used. That is, [length]=square root of ([x-length]^2+[y-length]^2).
Turning: The Turning score is calculated in the same way as the Speed score, but instead of using the length of the speed vector, the absolute angle between the current speed vector and the previous one is used, giving a value between […].
Stumbling: The Stumbling score is calculated in the same way as the Speed score, but instead of using the length of the speed vector, the absolute angle between the current speed vector and the direction of body orientation is used, giving a value between 0 and 90 degrees.
Several sets of wild-type flies were assayed under various conditions to test the motion tracking software. Lithium Chloride (LiCl), a treatment for bipolar affective disorder in humans, is also known to induce behavioral changes in Drosophila (Xia et al., 1997). […] The results of this assay are shown in the bar graph of FIG. 32.

In the case of `NCC1(CC(=O)O)CCCCC1` [Gabapentin], the “mean recovery times following seizure” value (flies) is given as “reduce” and the seizure (flies) is given as “reduce”.
In the case of 4-phenylbutyrate [PBA], the lifespan (Drosophila) is given as “significantly increase” and the locomotor vigor (Drosophila) is given as “without diminution”.
For `CC(/C=C/C(=O)NO)=C\[C@@H](C)C(=O)c1ccc(N(C)C)cc1` [TSA], the climbing ability [1] was “restore climbing ability for HD flies to almost the same level as for wt flies” and the “speed restored to wt level” value [1] was “the same is not true for speed”.
In the case of `O=C1NC(=O)C(c2ccccc2)(c2ccccc2)N1` [Phenyloin], the “mean recovery times following seizure” value (flies) is given as “reduce” and the seizure (flies) is given as “reduce”.
For `CC1(C)O[C@@H]2[C@@H](CO[C@@]3(COS(N)(=O)=O)OC(C)(C)O[C@@H]23)O1` [Topiramate], the “mean recovery times following seizure” value (flies) is listed as “reduce” and the seizure (flies) is listed as “reduce”.
For `[Cl-].[Li+]` [LiCl, Lithium Chloride], the incidence of stumbling (wild-type flies) was “increase incidence”, the incidence of turning (wild-type flies) was “increase incidence” and the speed (wild-type flies) was “significant reduction”.
